The values below come from patent US20220315572A1, “SUBSTITUTED CYANOPYRROLIDINES WITH ACTIVITY AS USP30 INHIBITORS” (MISSION THERAPEUTICS LIMITED, priority 2019, published 2022).

Molecules are shown by their SMILES. Bounds are passed on as bounds.

The target in one experiment is T1, USP30 (Homo sapiens, UniProt Q70CQ3).
T1 construct: purchased Boston Biochem E582
T1 sequence (Q70CQ3 57-517 limits assumed): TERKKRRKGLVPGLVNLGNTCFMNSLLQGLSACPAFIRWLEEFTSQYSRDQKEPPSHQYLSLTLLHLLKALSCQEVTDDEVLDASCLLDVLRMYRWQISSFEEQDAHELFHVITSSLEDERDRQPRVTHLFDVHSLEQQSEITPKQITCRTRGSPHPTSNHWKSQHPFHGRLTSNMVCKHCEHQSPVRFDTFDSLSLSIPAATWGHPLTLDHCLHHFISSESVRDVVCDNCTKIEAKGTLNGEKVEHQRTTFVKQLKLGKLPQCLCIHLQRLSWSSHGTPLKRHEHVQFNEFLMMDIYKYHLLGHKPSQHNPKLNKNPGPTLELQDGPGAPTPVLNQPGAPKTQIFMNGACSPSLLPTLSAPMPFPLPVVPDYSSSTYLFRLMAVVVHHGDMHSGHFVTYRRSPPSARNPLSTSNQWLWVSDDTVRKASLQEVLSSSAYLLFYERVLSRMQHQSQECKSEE
Put plainly: USP30 biochemical IC50 assay (fluorescence polarisation). As to conditions: USP30 biochemical IC50 assay, exemplary compounds; read-out: IC50. As to the method:
Dilution plates were prepared at 21 times the final concentration (2100 μM for a final concentration of 100 μM) in 50% DMSO in a 96-well polypropylene V-bottom plate (Greiner #651201). A typical 8-point dilution series would be 100, 30, 10, 3, 1, 0.3, 0.1, 0.03 μM final. Reactions were performed in duplicate in black 384 well plates (small volume, Greiner 784076) in a final reaction volume of 21 μl. Either […] of 50% DMSO or diluted compound was added to the plate. USP30 (Boston Biochem #E582) was diluted in reaction buffer (40 mM Tris, pH 7.5, 0.005% Tween 20, 0.5 mg/ml BSA, 5 mM beta-mercaptoethanol) to achieve a final assay concentration of 4 nM, and 10 μl of diluted USP30 was added to the compound. Enzyme and compound were incubated for 30 min at room temp. Reactions were initiated by the addition of 50 nM of TAMRA labelled peptide linked to ubiquitin via an iso-peptide bond as fluorescence polarisation substrate. Reactions were read immediately after addition of substrate and following a 2-hour incubation at room temperature. Readings were performed on a Pherastar Plus (BMG Labtech). λ Excitation 540 nm; λ Emission 590 nm.
On the technique in general: Polarisation of emitted light reports the rotation of a fluorescent probe.

The target of another experiment is T2, UCHL1 (Homo sapiens, UniProt P09936).
T2 sequence (P09936 1-223): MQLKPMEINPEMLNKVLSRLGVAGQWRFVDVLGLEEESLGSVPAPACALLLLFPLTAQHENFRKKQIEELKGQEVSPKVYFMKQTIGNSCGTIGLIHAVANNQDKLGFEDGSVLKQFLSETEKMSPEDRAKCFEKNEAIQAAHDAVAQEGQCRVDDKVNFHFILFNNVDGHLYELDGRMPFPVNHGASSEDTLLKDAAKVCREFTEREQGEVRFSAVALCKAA
Briefly: DUB biochemical IC50 assay, UCHL1.

Experiment [1] has as its system USP2, USP10, USP16, USP21, USP22, USP25, USP28, USP35, USP46. Put plainly: DUB biochemical IC50 assays, nine DUBs. The conditions noted are these: range over the nine DUBs; for IC50: Ref. Ex. C excl. USP22, Ref. Ex. D excl. USP2, 46.
A further experiment deals with Cathepsin B (Homo sapiens, UniProt P07858). Put plainly: Cathepsin IC50, cathepsin B. Format: biochemical.
For a further experiment, the target named is T3, Cathepsin K (Homo sapiens, UniProt P43235).
T3 sequence (P43235 115-329): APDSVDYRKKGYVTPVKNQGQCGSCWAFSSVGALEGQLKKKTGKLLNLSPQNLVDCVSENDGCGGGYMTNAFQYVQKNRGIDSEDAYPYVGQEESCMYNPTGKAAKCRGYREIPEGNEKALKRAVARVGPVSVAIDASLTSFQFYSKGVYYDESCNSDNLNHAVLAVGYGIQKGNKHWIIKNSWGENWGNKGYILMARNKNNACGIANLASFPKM
Briefly: Cathepsin IC50, cathepsin K. Format: biochemical.

A further experiment deals with Cathepsin L (Homo sapiens, UniProt P07711). Put plainly: Cathepsin IC50, cathepsin L. Format: biochemical.
The next experiment addresses Cathepsin S (Homo sapiens, UniProt P25774). Put plainly: Cathepsin IC50, cathepsin S. Format: biochemical.
For another experiment, the target named is Cathepsin V (Homo sapiens, UniProt O60911). Put plainly: Cathepsin IC50, cathepsin V. Format: biochemical.
The next experiment relates to Cathepsins B, K, L, S, V. Put plainly: Cathepsin IC50, range over B, K, L, S, V. Format: biochemical. As to conditions: for Selectivity preference for USP30 v cathepsins: range over cathepsins B, K, L, S; for IC50: range over the five cathepsins.
For experiment [2], the system named is HCT116 human colorectal carcinoma cells. Briefly: In vitro cytotoxicity (Cell Tox), alamarBlue. The format is cell-based. The source says:
There is also a need for compounds that have a favourable safety profile, which may be measured by a variety of standard in vitro and in vivo methods. A cell toxicity counter-screen may be used to assay the anti-proliferative/cytotoxic effect in a particular cell line (e.g. HCT116) by fluorometric detection of rezasurin (alamarBlue) to resofurin in response to mitochondrial activity.
In Vitro Cytotoxicity (Cell Tox): Measured in HCT116 human colorectal carcinoma cells using alamarBlue as the assay endpoint. Compound cytotoxicity was measured over a period of 96-hour continual compound exposure.
For orientation: Resazurin is reduced to fluorescent resorufin, in cell work by metabolically active cells.

In the next experiment the target is T4, Endogenous USP30 (Homo sapiens, UniProt Q70CQ3).
T4 construct: USP30 endogenous cellular target engagement western blot (WB) assay; endogenous in cells; host or cells: HeLa stably overexpressing YFP-Parkin
T4 sequence (Q70CQ3 1-517): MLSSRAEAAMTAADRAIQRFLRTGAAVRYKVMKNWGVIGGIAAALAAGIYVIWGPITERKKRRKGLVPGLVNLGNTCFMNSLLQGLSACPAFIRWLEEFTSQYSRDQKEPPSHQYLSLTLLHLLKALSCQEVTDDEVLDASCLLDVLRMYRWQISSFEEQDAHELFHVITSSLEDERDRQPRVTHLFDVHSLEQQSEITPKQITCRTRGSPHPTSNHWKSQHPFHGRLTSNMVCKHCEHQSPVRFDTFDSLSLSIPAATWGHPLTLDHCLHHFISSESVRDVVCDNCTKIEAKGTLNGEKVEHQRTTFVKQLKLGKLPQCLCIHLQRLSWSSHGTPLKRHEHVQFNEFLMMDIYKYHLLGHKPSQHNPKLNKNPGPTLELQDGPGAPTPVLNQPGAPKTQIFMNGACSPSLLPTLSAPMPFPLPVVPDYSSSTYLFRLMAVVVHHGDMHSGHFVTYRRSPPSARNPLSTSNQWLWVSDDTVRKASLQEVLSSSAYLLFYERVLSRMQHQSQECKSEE
Put plainly: USP30 endogenous cellular target engagement western blot assay (Cell TE WB). Format: cell-based. As to conditions: Hela cells stably overexpressing YFP-Parkin, 1 hour. How it is done: Hela cells stably overexpressing YFP-Parkin were seeded into 6 well dishes. Once adhered, cells were treated with appropriate concentrations of test compounds or vehicle control for 1 hour at 37° C., 5% CO2. Whole cell lysates were prepared by scraping the cells into cold PBS, centrifuging and lysing in lysis buffer (50 mM Tris-base, pH 7.5, 50 mM NaCl, 1% NP-40/Igepal CA-630, 2 mM MgCl2, 10% Glycerol, 5 mM beta-mercaptoethanol, cOmplete mini tablets EDTA free (Roche), PhosStop tablets (Roche)) for 10 mins. The equivalent of 20 μg of protein from the cleared cell lysate was incubated with a final conc of 2.5 μM HA-Ahx-Ahx-Ub-VME probe at room temperature. The reaction was stopped by addition of 5×SDS sample loading buffer and proteins separated by SDS PAGE and western blotting. USP30 was detected using an anti-USP30 Sheep S746D antibody (MRC PPU Reagents and Services) and a rabbit anti sheep secondary IgG (H+L) horseradish peroxidase conjugated (Thermo #31480) and visualised using ECL reagent (GE #RPN2109) on a GE LAS4000 imager. Target engagement was measured by quantitation of the bands corresponding to USP30 and USP30 bound to the Ub-VME probe and expression of this proportion compared to vehicle treated control.
Cell TE WB: USP30 endogenous cellular target engagement western blot (WB) assay. Assays the activity of compounds against USP30 in cells using an irreversible activity probe to monitor USP30 activity.
Background: A western blot detects proteins with antibodies after separation by electrophoresis.

Sequence of Cathepsin S (P25774 115-331, species assumed): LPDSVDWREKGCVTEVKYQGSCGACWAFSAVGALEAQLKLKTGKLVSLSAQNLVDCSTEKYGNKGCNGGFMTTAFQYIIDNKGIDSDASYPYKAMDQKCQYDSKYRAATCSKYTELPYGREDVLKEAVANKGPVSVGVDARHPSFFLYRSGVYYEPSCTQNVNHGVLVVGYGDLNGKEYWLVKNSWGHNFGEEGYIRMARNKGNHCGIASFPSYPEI
Sequence of Cathepsin L (P07711 114-333, species assumed): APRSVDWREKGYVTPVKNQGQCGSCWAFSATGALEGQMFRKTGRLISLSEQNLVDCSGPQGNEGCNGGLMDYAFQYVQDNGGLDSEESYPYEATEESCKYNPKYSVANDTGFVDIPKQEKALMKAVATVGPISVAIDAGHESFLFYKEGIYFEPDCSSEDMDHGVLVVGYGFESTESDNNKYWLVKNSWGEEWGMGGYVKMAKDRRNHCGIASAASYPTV
Sequence of Cathepsin V (O60911 114-334, species assumed): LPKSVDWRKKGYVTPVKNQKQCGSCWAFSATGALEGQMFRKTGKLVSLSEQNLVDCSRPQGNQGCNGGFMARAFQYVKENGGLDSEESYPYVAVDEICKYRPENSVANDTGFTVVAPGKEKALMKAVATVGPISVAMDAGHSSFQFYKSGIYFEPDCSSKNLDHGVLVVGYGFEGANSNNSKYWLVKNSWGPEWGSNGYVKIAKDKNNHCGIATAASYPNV

The IC50 is the midpoint of a concentration-inhibition curve. One may read the EC50 as the concentration needed to bring the measured effect to its halfway point. Take `COC[C@@H]1C[C@@H](NC(=O)c2nnc(-c3cc(C#N)ccc3OC)o2)CN1C#N` [Example 4, 5-(5-Cyano-2-methoxyphenyl)-N-((3R,5S)-1-cyano-5-(methoxymethyl)pyrrolidine-3-yl)-1,3,4-oxadiazole-2-carboxamide]: the IC50 is 0.029 µM on USP30; greater than 300 µM on UCHL1; no less than 10.6 µM in [1]; 111 µM at Cathepsin B; 44.5 µM on Cathepsin K; 54.5 µM on Cathepsin L. Also, the IC50 against Cathepsin S is 226 µM; on Cathepsin V, 223 µM; with Cathepsins B, K, L, S, V, 44.5 to 226 µM. For the same compound, the “DUB selectivity preference for USP30 v UCHL1” value on UCHL1 worked out at 10300. Also, in experiment [1], the “DUB selectivity preference for USP30 v 9 DUBs” value is given as 365-10300. Besides, in the experiment with Cathepsins B, K, L, S, V, the “Selectivity preference for USP30 v cathepsins” value is listed as 1500-7800. Also, the “Cell Tox EC50/USP30 IC50” value in [2] is listed as greater than 1000. Further, the EC50 in experiment [2] (Homo sapiens, HCT-116, 96-hour continual compound exposure, alamarBlue) was greater than 30 µM; on Endogenous USP30, 0.087 µM.
On to `COc1ccc(C#N)cc1-c1nnc(C(=O)N[C@@H]2C[C@@H](C)N(C#N)C2)o1` [Example 5, 5-(5-Cyano-2-methoxyphenyl)-N-((3R,5R)-1-cyano-5-methylpyrrolidin-3-yl)-1,3,4-oxadiazole-2-carboxamide], for which the IC50 is 0.034 µM at USP30; greater than 300 µM on UCHL1; no less than 12.4 µM in experiment [1]; greater than 300 µM against Cathepsin B; 24.5 µM at Cathepsin K; greater than 300 µM against Cathepsin L. The IC50 against Cathepsin S was greater than 300 µM; at Cathepsin V it was 162 µM; in the experiment with Cathepsins B, K, L, S, V it was 24.5 to 300 µM. For the same compound, the “DUB selectivity preference for USP30 v UCHL1” value on UCHL1 is listed as 8800. In addition, the “DUB selectivity preference for USP30 v 9 DUBs” value in experiment [1] is given as 360-8800. Also, the “Selectivity preference for USP30 v cathepsins” value in the experiment with Cathepsins B, K, L, S, V was 720-8800. On Endogenous USP30, this compound returned an EC50 of 0.072 µM.
